In patent US9526721B2, “Tetrahydroprotoberbine compounds and uses thereof in the treatment of neurological, psychiatric and neurodegenerative diseases” (priority 2012, dated 2016):

Experiments:
[1] = biological target: T1, 5HT1A (Homo sapiens, UniProt P08908); test: Receptor binding, 5HT1A; conditions: receptor expressed in CHO cells
T1 construct: host or cells: CHO cells
T1 sequence (P08908 1-422): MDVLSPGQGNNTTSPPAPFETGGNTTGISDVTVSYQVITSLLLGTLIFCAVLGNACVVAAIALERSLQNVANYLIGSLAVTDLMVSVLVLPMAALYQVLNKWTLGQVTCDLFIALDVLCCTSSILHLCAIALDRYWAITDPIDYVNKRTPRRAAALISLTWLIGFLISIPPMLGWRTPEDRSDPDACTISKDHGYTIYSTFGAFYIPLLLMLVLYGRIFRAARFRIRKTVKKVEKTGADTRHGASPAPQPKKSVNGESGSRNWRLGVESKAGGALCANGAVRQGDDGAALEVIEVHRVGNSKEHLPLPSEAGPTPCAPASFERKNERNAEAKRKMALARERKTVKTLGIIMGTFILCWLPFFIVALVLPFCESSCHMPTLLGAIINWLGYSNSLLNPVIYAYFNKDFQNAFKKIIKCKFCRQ
Procedure: (§1) All receptors tested were heterologously expressed CHO cells and IC50 values were determined by a non-linear, least squares regression analysis using MathIQ (ID Business Solution Ltd, UK). Ki was calculated using the equation of Cheng and Prusoff (1973, Biochem. Pharmacol 22:23099-3108) derived from the observed IC50 of the tested compound, the concentration of radioligand employed in the assay, and the historical values for the Kd of the ligand (obtained experimentally at MDS Pharma Services).
as §1, with “receptors” for “receptors tested”, “UK). K1” for “UK). Ki”, “calculated (Y.” for “calculated using the equation of”, “Cheng &” for “Cheng and”, “Prusoff 1973)” for “Prusoff (1973, Biochem. Pharmacol 22:23099-3108) derived”

[2] = system: rats; test: Catalepsy (bar test); type: in vivo, rat; conditions: SC; for catalepsy (immobilized contact time): across doses tested
Procedure: Testing occurred in a plexiglas box (28 cm×45 cm×20 cm) containing a horizontal steel bar located 8 cm above floor level. […] After injection animals were returned to the test box and catalepsy testing occurred at 1, 15, 30, and 45 minutes after injection. Testing at each time point lasted 2 min after the forepaws of each rat was placed on the bar. Behavior was recorded with a video camera (Cohu, Poway, Calif.) and scored off-line. The cumulative time spent immobilized with both forelimbs on the horizontal bar was scored for each 2 min test epoch. Videos selected at random were scored independently by a second observer and a high inter-rater reliability was observed (R^2=0.93, F=393.4, p<0.05).
Catalepsy testing was conducted as described in Example 12.

[3] = biological target: T2, 5HT4 (Homo sapiens, UniProt Q13639); test: Receptor binding, 5HT4
T2 construct: host or cells: CHO cells
T2 sequence (Q13639 whole entry, species assumed): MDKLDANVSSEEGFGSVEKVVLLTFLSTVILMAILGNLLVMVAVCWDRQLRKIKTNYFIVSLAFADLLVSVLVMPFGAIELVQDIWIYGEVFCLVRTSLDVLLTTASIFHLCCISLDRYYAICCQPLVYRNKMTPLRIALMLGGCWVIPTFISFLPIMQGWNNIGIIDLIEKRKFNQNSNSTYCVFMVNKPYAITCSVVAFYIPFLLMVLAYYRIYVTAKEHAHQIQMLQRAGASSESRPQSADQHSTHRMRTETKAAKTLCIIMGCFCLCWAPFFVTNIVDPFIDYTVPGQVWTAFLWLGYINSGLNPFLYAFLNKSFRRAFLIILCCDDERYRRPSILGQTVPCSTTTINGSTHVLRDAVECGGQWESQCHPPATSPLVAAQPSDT
Procedure: as §1

[4] = biological target: T3, D4.2 (Homo sapiens, UniProt P21917, DEL265-296); test: Receptor binding, dopamine D4.2; conditions: CHO cells
T3 construct: host or cells: CHO cells
T3 sequence (P21917 with tags, fused parts or gaps DEL265-296): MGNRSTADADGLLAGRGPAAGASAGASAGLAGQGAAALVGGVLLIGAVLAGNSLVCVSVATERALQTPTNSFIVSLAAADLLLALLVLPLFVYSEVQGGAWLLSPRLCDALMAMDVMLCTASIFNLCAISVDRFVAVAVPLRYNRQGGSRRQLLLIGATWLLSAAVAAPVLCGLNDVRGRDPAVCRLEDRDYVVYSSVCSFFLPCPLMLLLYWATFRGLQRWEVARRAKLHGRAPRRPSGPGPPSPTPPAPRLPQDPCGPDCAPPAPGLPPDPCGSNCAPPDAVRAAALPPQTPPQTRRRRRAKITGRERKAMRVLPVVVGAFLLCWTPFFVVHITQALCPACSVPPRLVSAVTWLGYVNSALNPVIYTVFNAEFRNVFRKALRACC
Procedure: as §1

[5] = biological target: T4, 5HT2A (Homo sapiens, UniProt P28223); test: Receptor binding, 5HT2A; conditions: receptor expressed in CHO cells
T4 construct: host or cells: CHO cells
T4 sequence (P28223 whole entry, species assumed): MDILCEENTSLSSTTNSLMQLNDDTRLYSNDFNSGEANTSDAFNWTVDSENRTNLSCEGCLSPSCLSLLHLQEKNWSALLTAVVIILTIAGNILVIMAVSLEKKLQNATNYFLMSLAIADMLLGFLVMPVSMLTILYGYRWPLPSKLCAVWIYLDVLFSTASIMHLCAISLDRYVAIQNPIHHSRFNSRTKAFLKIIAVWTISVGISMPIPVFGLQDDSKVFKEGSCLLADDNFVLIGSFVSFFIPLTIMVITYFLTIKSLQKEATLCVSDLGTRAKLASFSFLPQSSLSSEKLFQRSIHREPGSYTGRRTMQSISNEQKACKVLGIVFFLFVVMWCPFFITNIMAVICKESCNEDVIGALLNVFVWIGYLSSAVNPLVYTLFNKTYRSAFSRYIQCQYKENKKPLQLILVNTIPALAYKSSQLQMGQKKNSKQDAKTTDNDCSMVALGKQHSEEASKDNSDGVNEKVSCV
Procedure: as §1
as §1, with “receptors” for “receptors tested”, “UK). K1” for “UK). Ki”, “calculated (Y.” for “calculated using the equation of”, “Cheng &” for “Cheng and”, “Prusoff 1973)” for “Prusoff (1973, Biochem. Pharmacol 22:23099-3108) derived”

[6] = system: rats; test: Latent inhibition; type: in vivo, rat; conditions: treatment before each pre-exposure; 1.0 mg/kg d-AMPH before conditioning
Procedure: Sensitization: Animals were removed from the colony and taken to a holding room where they received either IP d-AMPH or saline every Monday, Wednesday, and Friday. Doses started at 1 mg/kg and increased 1 mg/kg each week over 5 weeks to 5 mg/kg. 25 days after the induction phase, behavioral sensitization was assessed over 3 days in locomotor chambers (plexiglass box, 40 cm×40 cm×40 cm) where speed and distance traveled were recorded using Noldus Ethovision XT (Noldus, Leesburg, Va.). The first day consisted of a 2 hr acclimation session, and prior to counter balanced injections of either 0.5 mg/kg d-AMPH or saline on days 2 and 3 animals were acclimated for 1 hr. Experiments were run in two separate cohorts of 30 animals to minimize the time between testing sensitization and LI.
Latent Inhibition: LI tests were performed in rats treated with 1.0 mg/kg acute d-AMPH, sensitized rats, and drug-naive rats. LI testing began 5 days post-challenge of the escalating dose regime. Animals in both conditions (chronic saline or sensitized) were randomly assigned to either non-pre-exposed (NPE) or pre-exposed (PE) groups. Testing took place over 3 consecutive days. […] Animals in the PE group received 50 presentations of the CS (10 sec duration) per day at a variable interval for the first two days. Animals in the NPE group were placed in the chamber for an equal time as the PE animals. Conditioning (COND) consisted of 100 CS-US pairings. Latency to cross into the other compartment and the number of total beam breaks were recorded. Drug-naïve animals receiving acute 1.0 mg/kg AMPH were injected IP 45 min before the COND trial.
The effects of the two individual enantiomers of govadine on latent inhibition (LI) were also tested as described in Example 12.

[7] = biological target: T5, 5HT6 (Homo sapiens, UniProt P50406); test: Receptor binding, 5HT6; conditions: CHO cells
T5 construct: host or cells: CHO cells
T5 sequence (P50406 whole entry, species assumed): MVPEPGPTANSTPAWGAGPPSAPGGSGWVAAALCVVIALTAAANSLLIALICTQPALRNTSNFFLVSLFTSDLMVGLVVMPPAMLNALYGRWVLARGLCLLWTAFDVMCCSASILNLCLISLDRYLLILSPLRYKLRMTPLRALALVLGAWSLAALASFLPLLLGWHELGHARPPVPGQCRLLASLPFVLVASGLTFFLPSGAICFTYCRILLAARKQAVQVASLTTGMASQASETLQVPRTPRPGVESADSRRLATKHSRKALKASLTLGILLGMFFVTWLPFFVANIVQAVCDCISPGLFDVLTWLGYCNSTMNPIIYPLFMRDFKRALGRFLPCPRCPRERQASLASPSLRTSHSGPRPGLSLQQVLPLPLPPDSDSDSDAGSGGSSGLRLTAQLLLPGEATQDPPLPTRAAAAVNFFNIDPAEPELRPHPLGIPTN
Procedure: as §1

[8] = biological target: D1 (Homo sapiens, UniProt P21728); test: Receptor binding, dopamine D1; parameters: host or cells: CHO cells; conditions: for Ki: receptor expressed in CHO cells, read-out: Ki, D1
Sequence of D1 (P21728 whole entry): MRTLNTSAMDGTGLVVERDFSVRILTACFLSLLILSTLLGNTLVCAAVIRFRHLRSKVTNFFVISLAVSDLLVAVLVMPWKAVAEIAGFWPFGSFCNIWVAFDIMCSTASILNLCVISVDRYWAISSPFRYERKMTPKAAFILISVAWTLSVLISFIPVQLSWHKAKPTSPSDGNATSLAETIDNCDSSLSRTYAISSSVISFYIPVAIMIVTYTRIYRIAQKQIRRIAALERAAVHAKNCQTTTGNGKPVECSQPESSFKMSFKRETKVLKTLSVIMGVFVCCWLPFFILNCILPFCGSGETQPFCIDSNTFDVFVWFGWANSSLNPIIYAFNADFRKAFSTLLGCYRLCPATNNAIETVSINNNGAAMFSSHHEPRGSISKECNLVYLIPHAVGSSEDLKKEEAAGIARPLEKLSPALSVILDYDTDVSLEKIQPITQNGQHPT
Procedure: as §1
as §1, with “receptors” for “receptors tested”, “UK). K1” for “UK). Ki”, “calculated (Y.” for “calculated using the equation of”, “Cheng &” for “Cheng and”, “Prusoff 1973)” for “Prusoff (1973, Biochem. Pharmacol 22:23099-3108) derived”

[9] = system: rats; test: Social interaction in NVHL and sham rats; type: in vivo, rat; conditions: 1.0 mg/kg IP 15 minutes prior to testing
Source text: Experimental rats were neonatal ventral hippocampal lesioned (NVHL) and control (Sham) animals. […] The SI environment consisted of a 83×90×30 cm open field with each surface painted black.

[10] = system: rats; test: Temporal order recognition (radial arm maze); conditions: for Arm Entries / Distance Travelled: 1.0 mg/kg govadine isomers, 5.0 mg/kg clozapine; for temporal order effect: injected 15 min before test trial
Procedure: The task exploits a rat's natural preference for novel locations. Each animal received 3 separate trials where access to two arms of an eight arm radial arm maze was granted. During the first trial, two arms were selected at random for exploration, and animals were allowed to explore these arms for 2 min After this time, they were taken off the maze and returned to their home cage. 1 hour later they were placed back on the maze and two new arms were randomly selected for 2 min of exploration.
Time spent in each arm (recent and old) was recorded as well as total distance traveled and the total number of arm entries in Noldus EthoVision 3.1 (Leesburg, Va.).

SMILES	Ki [1] [µM]	catalepsy (immobilized contact time) [2]	inhibition at 10 µM ([3]; 10 μM, CHO cells) [%]	inhibition at 10 µM [4] [%]	Ki [5] [µM]	latent inhibition in acute d-AMPH-treated animals [6]	inhibition at 10 µM [7] [%]	binding affinity to the D1 receptor [8]	Ki [8] [µM]	social interaction in NVHL rats versus Sham controls [9]	Arm Entries ([10]; 45 min. delay)	Distance Travelled ([10]; 45 min. delay)	temporal order effect ([10]; 45 min delay)	temporal order effect ([10]; 4 hr delay)	Arm Entries ([10]; 4 hr. delay)	Distance Travelled ([10]; 4 hr. delay)	time of peak cataleptic behavior post injection [2] [min]	Ki ([3]; receptor expressed in CHO cells) [µM]
COc1cc2c(cc1O)CN1CCc3cc(OC)c(O)cc3[C@H]1C2 [d-govadine]	18.2	No evidence of catalepsy	42	20	11.8	restored LI	9	strong binding affinity	0.00875	comparable levels of SI	14.8 ± 1.9	2433 ± 363	abolished	restored temporal order recognition	11 ± 1.1	2091 ± 114	–	–
COc1cc2c(cc1O)CN1CCc3cc(OC)c(O)cc3[C@@H]1C2 [l-govadine]	15.2	Catalepsy was observed	–	21	11.1	restored LI	12	strong affinity	0.00577	comparable levels of SI	3.67 ± 1.9	587.7 ± 109	abolished	no temporal order effect	3.5 ± 0.9	824 ± 135	15	2.47
